{"source": "paper PMC12794188", "about": "“Maternal–Fetal Transfer and Toxicokinetics of 2,2′,5,5′-Tetrachlorobiphenyl, [^14C]-PCB52, Following Intratracheal Administration” (Chemical Research in Toxicology, 2025)", "key": {"[1]": {"assay": "Literature half-life of PCB52 following intravenous administration in male rats (Pu et al.)", "details": "rat, in vivo, concentration–time data of Pu et al., read-out: half-life when Pu et al. data are fitted to a two-compartmental PK model"}, "[2]": {"design": "method as in Pu et al.", "details": "ref Pu et al., cited from earlier work"}}, "note": "Like-named read-outs stand apart in the source and are kept apart here."}
{"smiles": "Clc1ccc(Cl)c(-c2cc(Cl)ccc2Cl)c1", "note": "[PCB52, 2,2′,5,5′-Tetrachlorobiphenyl]", "values": [{"measurement": "half-life", "setting": "[1]", "result": "36 to 48", "unit": "h"}, {"measurement": "half-life", "setting": "[2]; intravenous administration in male rats", "result": "~240", "unit": "h"}, {"measurement": "half-life estimate", "setting": "[2]; intravenous, male rats, measured only up to 72 h postdosing", "result": 241, "unit": "h"}]}
